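Tested at 5 concentrations; 48 h exposure; 96-well plates; endpoints linearly interpolated, else capped at highest concentration. TGI: concentration producing complete growth inhibition.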
Experiments:
Experiment in all cases: DTP human tumour cell line panel, 48 h
A549 NSCLC = test system: A549 NSCLC
COLO 205 colon = test system: COLO 205 colon
KM12 colon = test system: KM12 colon
NCI/ADR-RES ovarian = test system: NCI/ADR-RES ovarian
PC-3 prostate = test system: PC-3 prostate
SNB-75 CNS = test system: SNB-75 CNS
SR leukemia = test system: SR leukemia
SW-620 colon = test system: SW-620 colon
TK-10 renal = test system: TK-10 renal
UO-31 renal = test system: UO-31 renal

Measured: TGI

COc1ccc(/C=C/C2=NN(c3cccc(S(=O)(=O)O)c3)C3(C2)SCC(=O)N3c2nc3ccccc3s2)cc1 (stereo not given)
> 100 µM: all assays above

CC(=N\N)/C(C)=N/N=C(C)/C(C)=N/N=C(C)/C(C)=N/N
> 100 µM: all assays above

CC(C)C1N(C)c2ccc(Cl)cc2[C@H]2c3ccccc3CCN12 (stereo not given in full)
> 100 µM: all assays above

C[N+]1(CCN[N+]2(C)CCCCC2)CCc2ccccc2C1 (stereo not given)
> 100 µM: all assays above

C(=C\N1CCCCC1)/c1nnnn1-c1ccccc1
64.5 µM: NCI/ADR-RES ovarian
55 µM: SR leukemia
69.7 µM: SNB-75 CNS
> 100 µM: all other assays above

COc1ccccc1C[C@@H]1OC2(C=CC(=O)C=C2)O[C@H]1Cc1ccccc1OC
> 50 µM: A549 NSCLC
27.4 µM: TK-10 renal
12.7 µM: UO-31 renal
17.6 µM: SNB-75 CNS
18.8 µM: KM12 colon
18.4 µM: NCI/ADR-RES ovarian
5.98 µM: SW-620 colon
14.9 µM: COLO 205 colon
13.1 µM: SR leukemia
20.6 µM: PC-3 prostate

CC1C(c2ccc(Cl)cc2)c2cc3c(cc2OC1N1CCOCC1)OCO3 (stereo not given)
17.9 µM: SR leukemia
> 100 µM: all other assays above

O=C(Nc1ccccc1)c1cc(S(=O)(=O)N2CCNNC2=O)c(S)cc1Cl
> 100 µM: all assays above

O=C1Nc2ccccc2/C1=c1\[nH]c(=O)/c(=C\c2ccc(OCc3ccccc3)cn2)[nH]c1=O
50.1 µM: TK-10 renal
14 µM: SNB-75 CNS
0.848 µM: UO-31 renal
69.4 µM: SR leukemia
> 100 µM: all other assays above

CC1CC(=O)N(N(C)C)C(C#N)(C#N)C1(C#N)C#N (stereo not given)
> 51 µM: SNB-75 CNS
31.3 µM: UO-31 renal
7.99 µM: COLO 205 colon
55 µM: NCI/ADR-RES ovarian
21.1 µM: SW-620 colon
> 74.2 µM: A549 NSCLC
30.7 µM: SR leukemia
34.8 µM: PC-3 prostate
> 64.9 µM: KM12 colon
30.3 µM: TK-10 renal

CC(=O)N(O)c1ccc(-c2nc3ccccc3s2)cc1
> 100 µM: all assays above

COc1cc2nc(-c3cccs3)[nH]c(=O)c2cc1OC
58.4 µM: SR leukemia
> 100 µM: all other assays above

CC(=O)Oc1ccc(/C=C/C(=O)O[C@@H](C(=O)O)[C@@H](OC(=O)/C=C/c2ccc(OC(C)=O)c(OC(C)=O)c2)C(=O)O)cc1OC(C)=O
> 100 µM: all assays above

S=C(Nc1ccc2cn[nH]c2c1)Nc1ccc2cn[nH]c2c1
> 100 µM: all assays above

C/C1=C\C=C(\C(C)C)CC/C(C(=O)O)=C\CC/C(C)=C/CC1
50.6 µM: COLO 205 colon
53.8 µM: UO-31 renal
35.2 µM: PC-3 prostate
76.2 µM: NCI/ADR-RES ovarian
38.6 µM: SR leukemia
41.8 µM: KM12 colon
> 100 µM: all other assays above

COc1cc(N(Cc2ccc3oc(=O)c(-c4ccccc4)nc3c2)Cc2ccc3oc(=O)c(-c4ccccc4)nc3c2)cc(OC)c1OC
> 10 µM: all assays above

CCN(CC)c1ccc(/C=C/C=C2C(=O)NC(=S)NC2=O)cc1
41.8 µM: NCI/ADR-RES ovarian
> 100 µM: all other assays above

CN(C)c1cccc(NC2=NCCO2)c1
99.6 µM: SR leukemia
41.3 µM: COLO 205 colon
78.6 µM: KM12 colon
> 100 µM: all other assays above

CCOc1cc(NC(C)=O)ccc1C(=O)NN1C(=O)CSC1c1ccccc1 (stereo not given)
> 100 µM: all assays above

From PubChem BioAssay (NCI)
